This series is described as follows: activity coefficient (dimensionless); of the first substance listed, at infinite dilution; xn = mol fraction of the nth substance listed. To be noted: 101 kPa, Liquid, Chromatography, x1 = 0.

Numbers after ± are expanded uncertainties.

On to `Cc1ccccc1C` [1,2-dimethylbenzene] + CCCCn1cc[n+](C)c1.O=S(=O)([O-])C(F)(F)F, for which the activity coefficient is, setting by setting: (303.15 K) 3.66 ± 0.36; (313.15 K) 3.67 ± 0.36; (323.15 K) 3.68 ± 0.37; (333.15 K) 3.7 ± 0.37; (343.15 K) 3.71 ± 0.37; (353.15 K) 3.76 ± 0.37. Also, the activity coefficient (363.15 K) amounted to 3.78 ± 0.38.

Regarding `Cc1cccc(C)c1` [1,3-dimethylbenzene] + CCCCn1cc[n+](C)c1.O=S(=O)([O-])C(F)(F)F, the activity coefficient runs as follows: (303.15 K) 4.72 ± 0.47; (313.15 K) 4.66 ± 0.46; (323.15 K) 4.58 ± 0.46; (333.15 K) 4.47 ± 0.45; (343.15 K) 4.41 ± 0.44; (353.15 K) 4.33 ± 0.43. Also, the activity coefficient (363.15 K) was found to be 4.07 ± 0.41.

As for `Cc1ccc(C)cc1` [1,4-dimethylbenzene] + CCCCn1cc[n+](C)c1.O=S(=O)([O-])C(F)(F)F, the activity coefficient turned out to be 4.3 ± 0.43 (303.15 K); 4.32 ± 0.43 (313.15 K); 4.33 ± 0.43 (323.15 K); 4.37 ± 0.43 (333.15 K); 4.41 ± 0.44 (343.15 K); 4.42 ± 0.44 (353.15 K). Besides, the activity coefficient (363.15 K) amounted to 4.42 ± 0.44.

As for `CC(C)CC(C)(C)C` [2,2,4-trimethylpentane] + CCCCn1cc[n+](C)c1.O=S(=O)([O-])C(F)(F)F, the activity coefficient (303.15 K) came to 57 ± 5.7; the activity coefficient (313.15 K) is 52.9 ± 5.3; the activity coefficient (323.15 K) turned out to be 50.9 ± 5.1; the activity coefficient (333.15 K) came out at 47.9 ± 4.8; the activity coefficient (343.15 K) was determined as 45.6 ± 4.5; the activity coefficient (353.15 K) amounted to 43.9 ± 4.4. Moreover, the activity coefficient (363.15 K) amounted to 40.8 ± 4.1.

Regarding `c1ccccc1` [benzene] + CCCCn1cc[n+](C)c1.O=S(=O)([O-])C(F)(F)F, the activity coefficient (303.15 K) is 1.81 ± 0.18; the activity coefficient (313.15 K) amounted to 1.82 ± 0.18; the activity coefficient (323.15 K) was determined as 1.83 ± 0.18; the activity coefficient (333.15 K) was determined as 1.84 ± 0.18; the activity coefficient (343.15 K) turned out to be 1.86 ± 0.18; the activity coefficient (353.15 K) was determined as 1.87 ± 0.19. Also, the activity coefficient (363.15 K) was determined as 1.9 ± 0.19.

Take `C1CCCCC1` [cyclohexane] + CCCCn1cc[n+](C)c1.O=S(=O)([O-])C(F)(F)F: the activity coefficient is 21.8 ± 2.2 (303.15 K); 20.5 ± 2 (313.15 K); 19.2 ± 1.9 (323.15 K); 18.1 ± 1.8 (333.15 K); 16.9 ± 1.7 (343.15 K); 15.5 ± 1.5 (353.15 K). Besides, the activity coefficient (363.15 K) was 14.6 ± 1.4.

As for `C1=CCCCC1` [cyclohexene] + CCCCn1cc[n+](C)c1.O=S(=O)([O-])C(F)(F)F, the activity coefficient by setting is: (303.15 K) 10.9 ± 1.1; (313.15 K) 10.4 ± 1; (323.15 K) 10.1 ± 1; (333.15 K) 9.69 ± 0.96; (343.15 K) 9.34 ± 0.93; (353.15 K) 9.15 ± 0.91. Also, the activity coefficient (363.15 K) is 8.82 ± 0.88.

`CCCCCCCCCC` [decane] + CCCCn1cc[n+](C)c1.O=S(=O)([O-])C(F)(F)F: the activity coefficient was 897 (303.15 K); 709 (313.15 K); 576 (323.15 K); 483 (333.15 K); 409 (343.15 K); 348 (353.15 K). Further, the activity coefficient (363.15 K) came to 306.

Regarding `CCc1ccccc1` [ethylbenzene] + CCCCn1cc[n+](C)c1.O=S(=O)([O-])C(F)(F)F, the activity coefficient by setting is: (303.15 K) 4.62 ± 0.46; (313.15 K) 4.57 ± 0.46; (323.15 K) 4.54 ± 0.45; (333.15 K) 4.52 ± 0.45; (343.15 K) 4.5 ± 0.45; (353.15 K) 4.49 ± 0.45. Also, the activity coefficient (363.15 K) was found to be 4.47 ± 0.44.

In the case of `CCCCCCC` [heptane] + CCCCn1cc[n+](C)c1.O=S(=O)([O-])C(F)(F)F, the activity coefficient worked out at 56.7 ± 5.7 (303.15 K); 51.6 ± 5.2 (313.15 K); 48.5 ± 4.8 (323.15 K); 46 ± 4.6 (333.15 K); 43.3 ± 4.3 (343.15 K); 41.1 ± 4.1 (353.15 K). Also, for the setting “363.15 K”, the activity coefficient was 38.8 ± 3.9.

In the case of `CCCCCC` [hexane] + CCCCn1cc[n+](C)c1.O=S(=O)([O-])C(F)(F)F, the activity coefficient is 37.8 ± 3.8 (303.15 K); 35.7 ± 3.6 (313.15 K); 33.9 ± 3.4 (323.15 K); 32.1 ± 3.2 (333.15 K); 30.3 ± 3 (343.15 K); 29.1 ± 2.9 (353.15 K). The activity coefficient (363.15 K) stood at 27.6 ± 2.8.

With `CC1CCCCC1` [methylcyclohexane] + CCCCn1cc[n+](C)c1.O=S(=O)([O-])C(F)(F)F, the activity coefficient reads like this: (303.15 K) 30.2 ± 3; (313.15 K) 28.5 ± 2.8; (323.15 K) 26.8 ± 2.7; (333.15 K) 25.4 ± 2.5; (343.15 K) 24.1 ± 2.4; (353.15 K) 22.9 ± 2.3. Moreover, the activity coefficient (363.15 K) is 21.6 ± 2.1.

As to `CCCCCCCCC` [nonane] + CCCCn1cc[n+](C)c1.O=S(=O)([O-])C(F)(F)F, the activity coefficient is, setting by setting: (303.15 K) 122 ± 12; (313.15 K) 111 ± 11; (323.15 K) 103 ± 10; (333.15 K) 93.3 ± 9.3; (343.15 K) 88.2 ± 8.8; (353.15 K) 81.3 ± 8.1. In addition, for the setting “363.15 K”, the activity coefficient came to 75.9 ± 7.6.

`CCCCCCCC` [octane] + CCCCn1cc[n+](C)c1.O=S(=O)([O-])C(F)(F)F: the activity coefficient (303.15 K) was found to be 87.2 ± 8.7; the activity coefficient (313.15 K) was 79.9 ± 8; the activity coefficient (323.15 K) stood at 74.1 ± 7.4; the activity coefficient (333.15 K) worked out at 68.3 ± 6.8; the activity coefficient (343.15 K) amounted to 63.2 ± 6.3; the activity coefficient (353.15 K) came out at 60.3 ± 6. Besides, the activity coefficient (363.15 K) was determined as 55.1 ± 5.5.

For `CCCCC` [pentane] + CCCCn1cc[n+](C)c1.O=S(=O)([O-])C(F)(F)F, the activity coefficient is 26.5 ± 2.6 (303.15 K); 24.9 ± 2.5 (313.15 K); 23.9 ± 2.4 (323.15 K); 23.2 ± 2.3 (333.15 K); 22.2 ± 2.2 (343.15 K); 21.2 ± 2.1 (353.15 K). In addition, the activity coefficient (363.15 K) came to 19.9 ± 2.

As for `C=Cc1ccccc1` [styrene] + CCCCn1cc[n+](C)c1.O=S(=O)([O-])C(F)(F)F, the activity coefficient came out at 2.46 ± 0.24 (303.15 K); 2.48 ± 0.25 (313.15 K); 2.49 ± 0.25 (323.15 K); 2.51 ± 0.25 (333.15 K); 2.53 ± 0.25 (343.15 K); 2.54 ± 0.25 (353.15 K). In addition, the activity coefficient (363.15 K) turned out to be 2.57 ± 0.26.

In the case of `Cc1ccccc1` [toluene] + CCCCn1cc[n+](C)c1.O=S(=O)([O-])C(F)(F)F, the activity coefficient runs as follows: (303.15 K) 2.72 ± 0.27; (313.15 K) 2.75 ± 0.27; (323.15 K) 2.78 ± 0.28; (333.15 K) 2.8 ± 0.28; (343.15 K) 2.83 ± 0.28; (353.15 K) 2.85 ± 0.28. Besides, the activity coefficient (363.15 K) turned out to be 2.88 ± 0.29.
